Results on nine molecules are retold here after patent publication US9446047B2, “Substituted 2,3-dihydro-1H-inden-1-one retinoic acid-related orphan nuclear receptor antagonists for treating multiple sclerosis” (Arrien Pharmaceuticals LLC, priority 2013, dated 2016).

The structures appear in SMILES notation. Where two headings read alike, the source gives them in different places.

In one data set the test system is IL-17 production. Kind of data set: Anti-CD3e antibody induced CD4+ T cell cytokine IL-17 production in male BALB/c mice (serum ELISA). It is filed as in vivo, mouse. The following applies: Dexamethasone treatment; serum at 1.5 h after anti-CD3e antibody. The method, then:
Efficacy of substituted 2, 3-dihydro-1H-inden-1-one containing selected compounds on Inhibition of Anti-CD3e Antibody induced CD4^+ T cell Cytokine-IL-17 Production in Male BALB/c Mice
A quantitative analysis of mouse IL-17 sandwich ELISA was conducted from the collected serum samples (Mouse IL-17 ELISA Ready-DuoSet ELISA kit, from R&D Systems, USA). The serum samples tested were collected from mice after 1.5 h of anti-CD3e antibody challenge, before antibody challenge, the mice were treated with different doses of test compounds or Dexamethasone as mentioned above in experimental design. The capture antibody was diluted in coating buffer (1×PBS) and transferred into each well. The plate was sealed and incubated overnight at RT. The following day the wells of the plate were aspirated and washed (3 times), allowing a one minute soak time in each step. The plate was blocked using 1% BSA in PBS, sealed, and incubated in ambient conditions for not less than one hour. After the incubation period, the plate was washed as described above, and the standards and serum samples were added to the appropriate wells and incubated for two hours at RT. […] The plate was read at 450/570 nm using the Microplate Absorbance Reader (SpectraMax; M3). […] Percent inhibition of cytokine production was calculated for all groups compared to positive control.
Background: An ELISA detects its analyte on a solid surface through an enzyme-linked reagent.

For data set [1], the system named is IL-17 release from CD4+ T cells. Description: Cytokine IL-17 estimation by HTRF, IL-17 release from CD4+ T cells. It is filed as cell-based. The note with it: Homo sapiens, HTRF.
The target in another data set is T1, RORγt (Homo sapiens, UniProt P51449).
T1 construct: host or cells: IL-17A Prom/LUCPorter HEK 293 cell line (IMGENEX, IML-301)
T1 sequence (P51449 1-497 isoform P51449-2): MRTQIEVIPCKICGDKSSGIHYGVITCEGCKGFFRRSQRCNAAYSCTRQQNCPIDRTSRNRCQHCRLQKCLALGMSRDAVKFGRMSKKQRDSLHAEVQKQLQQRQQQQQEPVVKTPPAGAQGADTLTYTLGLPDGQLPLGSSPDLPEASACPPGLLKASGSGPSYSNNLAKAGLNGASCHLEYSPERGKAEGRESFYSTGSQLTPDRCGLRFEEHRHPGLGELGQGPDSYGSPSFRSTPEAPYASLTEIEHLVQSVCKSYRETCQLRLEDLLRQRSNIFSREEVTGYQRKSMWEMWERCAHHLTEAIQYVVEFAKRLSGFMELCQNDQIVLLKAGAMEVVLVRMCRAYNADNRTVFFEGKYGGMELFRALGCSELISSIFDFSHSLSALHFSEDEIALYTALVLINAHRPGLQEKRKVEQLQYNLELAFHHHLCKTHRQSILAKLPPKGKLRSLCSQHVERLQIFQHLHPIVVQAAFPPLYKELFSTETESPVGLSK
Description: RORγt-activated IL-17A Prom/LUCPorter HEK 293 cells luciferase reporter assay. The data set is classed as cell-based. The note with it: IL-17A Prom/LUCPorter HEK 293 cells transfected with RORγt, 16 h; read-out: RORγt Cell Specific. (In general: In a reporter assay the amount or activity of a reporter protein is the signal.)

Data set [2] in a line: Rat pharmacokinetics, intravenous bolus and oral gavage. It is filed as in vivo, male Sprague Dawley rats. The note with it: plasma. As for the experimental part:
The bio-availability and pharmacokinetics of some compounds of the present invention were examined in male Sprague Dawley rats. A total of 6 male rats were used in the study. The study was performed using parallel design (n=3) with serial sampling.
Dose formulations were prepared on the day of doing. Blood samples were collected at 0.083 (only IV), 0.25, 0.5, 1, 2, 4, 8 and 24 h post-dose. At each time point, approximately 0.2 mL of blood was withdrawn from each cannulated rat through jugular vein and transferred to a pre-labeled microfuge tube containing 20 μL of […] K2EDTA per mL of blood. Following collection of blood sample, equal volume of heparinized saline was flushed into jugular vein of rat. The blood samples were centrifuged at 5000 g for 5 min at 4±2° C. The plasma was separated within 30 min of scheduled time and stored below −60° C. until bio-analysis. The plasma samples were analyzed for selected test EXAMPLES using a fixed-for purpose liquid chromatographic tandem mass spectrometric detection (LC-MS/MS) method with a lower limit of quantification of 2.21 ng/mL. The pharmacokinetic parameters for select EXAMPLES were calculated using the non-compartmental analysis tool of validated WinNonlin® software (Version 5.2).
Pharmacokinetic parameters (mean±SD; n=3) of 7 following intravenous bolus and oral gavage administration of 7 solution in male Sprague Dawley rats are shown in TABLE 4 below: […]

The next data set deals with T2, RORγ-LBD (RORγt) (Homo sapiens, UniProt P51449).
T2 construct: the 6-His-(GST) RORγ-LBD was used which expressed and purified from baculovirus infected Sf-21 insect cells; made in house; host or cells: baculovirus-infected Sf-21 insect cells
T2 sequence (P51449 269-508 limits assumed): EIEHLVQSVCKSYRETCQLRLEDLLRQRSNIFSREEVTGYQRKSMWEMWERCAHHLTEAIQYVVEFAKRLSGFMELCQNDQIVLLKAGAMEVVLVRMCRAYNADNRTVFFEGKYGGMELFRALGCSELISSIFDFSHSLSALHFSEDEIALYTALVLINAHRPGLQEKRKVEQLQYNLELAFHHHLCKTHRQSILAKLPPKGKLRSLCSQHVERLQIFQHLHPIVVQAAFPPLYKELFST
Kind of data set: TR-FRET RORγt Binding Assay. The following applies: 6-His(GST)RORγ-LBD, SRC1_2 peptide, read-out: RORγt Binding. On the technique in general: Time-resolved FRET reads energy transfer from a long-lived donor to a nearby acceptor.

The mark [3] stands for this setting: IV 2 mg/kg, solution, male Sprague Dawley rats, mean±SD n=3.
Setting [4] is: PO 10 mg/kg, solution, male Sprague Dawley rats, mean±SD n=3.
[5] abbreviates: IL-17 release from CD4+ T cells, read-out: IL-17 Inhibition.

For `C[C@@H]1C[C@H]2[C@@H]3CCC4=CC(=O)C=C[C@]4(C)[C@@]3(F)[C@@H](O)C[C@]2(C)[C@@]1(O)C(=O)CO` [Dexamethasone, reference compound], in the data set on IL-17 production, the “reduction in IL-17 production compared to positive control group” value is listed as 94%. The IC50 in data set [1] (CD4+ T lymphocytes, standards, read-out: IC50 of IL-17 inhibition (assay standards)) was 14 nM.

By bioavailability is commonly meant the share of a dose that reaches the circulation, judged against a reference dose that is usually intravenous. Broadly, the AUC(0-inf) is the area under the concentration-time curve extrapolated to infinity. The term AUC(0-t) denotes the area under the concentration-time curve up to a stated or last time point. A low value points to less exposure. The term half-life denotes the time in which the quantity being followed falls by half. Low values mean fast loss, high ones slow loss. Usually Cmax stands for the peak of the concentration-time curve. As a reminder, the Tmax is the time from dosing to the highest level. As to `COc1cc2c(cc1N1CCOCC1)CC(Cc1cccc(OC(F)(F)F)c1)C2=O` (stereo not drawn) [compound 31, 6-methoxy-5-morpholino-2-(3-(trifluoromethoxy)benzyl)-2,3-dihydro-1H-inden-1-one], the IC50 on RORγt was above 10000 nM. For the same molecule, in data set [2] (male, Sprague Dawley, PO 10 mg/kg vs IV 2 mg/kg, AUCinf and nominal doses used, read-out: F (bioavailability)), the bioavailability was 19%. For the same molecule, in data set [2] (setting [3]), the AUC(0-inf) came out at 589 ± 63.9 ng·h/mL, the AUC(0-t) was found to be 572 ± 57.4 ng·h/mL, the clearance was 57 ± 5.85 mL/min/kg and the half-life was 6.63 ± 4.92 h. Moreover, the highest concentration (Cmax) in data set [2] (IV 2 mg/kg, solution, male Sprague Dawley rats, mean±SD n=3, footnote b: back extrapolated concentration at time zero) was 1940 ± 482 ng/mL. In data set [2] (setting [4]), this molecule showed an AUC(0-inf) of 558 ± 125 ng·h/mL, an AUC(0-t) of 553 ± 124 ng·h/mL and a Cmax of 176 ± 22.7 ng/mL. Besides, in data set [2] (PO 10 mg/kg, solution, male Sprague Dawley rats, median (min-max)), the Tmax amounted to 2 h. Also, the IC50 on RORγ-LBD (RORγt) was above 1000 nM. Moreover, the IC50 in data set [1] (setting [5]) is above 1000 nM.

On to `COc1cc2c(cc1N1CCN(C)CC1)CC(Cc1cc(OC(F)(F)F)cc(C(O)(C(F)(F)F)C(F)(F)F)c1)C2=O` (stereo not drawn) [compound 236, 2-(3-(1,1,1,3,3,3-hexafluoro-2-hydroxypropan-2-yl)-5-(trifluoromethoxy)benzyl)-6-methoxy-5-(4-methylpiperazin-1-yl)-2,3-dihydro-1H-inden-1-one], for which the IC50 is above 1000 nM at RORγt, above 1000 nM on RORγ-LBD (RORγt) and below 500 nM in data set [1] (setting [5]).

Turning to `COc1cc2c(cc1N1CCN(C)CC1)CC(Cc1cc(C(F)(F)F)cc(C(O)(C(F)(F)F)C(F)(F)F)c1)C2=O` (stereo not drawn) [compound 240, 2-(3-(1,1,1,3,3,3-hexafluoro-2-hydroxypropan-2-yl)-5-(trifluoromethyl)benzyl)-6-methoxy-5-(4-methylpiperazin-1-yl)-2,3-dihydro-1H-inden-1-one], the IC50 (at RORγt; on RORγ-LBD (RORγt); in data set [1] (setting [5])) was below 500 nM each time.

As to `COc1cc2c(cc1N1CCOCC1)CC(Cc1cncc(C(O)(C(F)(F)F)C(F)(F)F)c1)C2=O` (stereo not drawn) [compound 245], the values for the IC50 (on RORγt; at RORγ-LBD (RORγt); in data set [1] (setting [5])) were below 500 nM, above 1000 nM and above 1000 nM, respectively.

Consider `COc1cc2c(cc1N1CCN(CCO)CC1)CC(Cc1ncccc1C(F)(F)F)C2=O` (stereo not drawn) [compound 251], for which the IC50 (on RORγt; at RORγ-LBD (RORγt); in data set [1] (setting [5])) was below 500 nM in each case.

As to `COc1cc2c(cc1N1CCN(C)CC1)CC(Cc1cncc(C(O)(C(F)(F)F)C(F)(F)F)c1)C2=O` (stereo not drawn) [compound 256], the IC50 (at RORγt; at RORγ-LBD (RORγt); in data set [1] (setting [5])) was below 500 nM in each case.

For the molecule `COc1cc2c(cc1N1CCOCC1)CC(Cc1cccc(C(O)(C(F)(F)F)C(F)(F)F)n1)C2=O` (stereo not drawn) [compound 266], the IC50 (on RORγt; on RORγ-LBD (RORγt); in data set [1] (setting [5])) was below 500 nM each time.

For the molecule `COc1cc2c(cc1N1CCOCC1)CC(Cc1ncc(C(O)(C(F)(F)F)C(F)(F)F)cc1C(F)(F)F)C2=O` (stereo not drawn) [compound 268], the IC50 (at RORγt; at RORγ-LBD (RORγt); in data set [1] (setting [5])) was below 500 nM each time.
